Measured values reported in patent US20240174727A1, “LONG-ACTING NATRIURETIC PEPTIDES AND USES THEREOF” (Eli Lilly and Company, priority 2022, published 2024).
Where two headings read alike, the source gives them in different places. Numbered stars: 1 amine (or outer) side, 2 acyl side, 3 side chain; on linkers, the order of the positions; unused ones are H or OH. Bridge positions count the residues as written; N and C are the ends. Peptide text beside a SMILES is read from it. * marks the point of attachment. C20 diacid = O=C(O)CCCCCCCCCCCCCCCCCCC(=O)*; γGlu = O=C(O)[C@H](CCC(=O)[*:2])N[*:1]

Molecular target: T1, human NPRA (Homo sapiens, UniProt P16066)
T1 construct: Full-Length cDNA Cloning and Generation of Cell Lines Overexpressing Natriuretic Peptide Receptors (NPRs); expressed in transfected cells; host or cells: Jump-in T-Rex HEK293 cells, pJTI R4 CMV-TO MCS pA vector, tetracycline induction
T1 sequence (P16066 33-1061): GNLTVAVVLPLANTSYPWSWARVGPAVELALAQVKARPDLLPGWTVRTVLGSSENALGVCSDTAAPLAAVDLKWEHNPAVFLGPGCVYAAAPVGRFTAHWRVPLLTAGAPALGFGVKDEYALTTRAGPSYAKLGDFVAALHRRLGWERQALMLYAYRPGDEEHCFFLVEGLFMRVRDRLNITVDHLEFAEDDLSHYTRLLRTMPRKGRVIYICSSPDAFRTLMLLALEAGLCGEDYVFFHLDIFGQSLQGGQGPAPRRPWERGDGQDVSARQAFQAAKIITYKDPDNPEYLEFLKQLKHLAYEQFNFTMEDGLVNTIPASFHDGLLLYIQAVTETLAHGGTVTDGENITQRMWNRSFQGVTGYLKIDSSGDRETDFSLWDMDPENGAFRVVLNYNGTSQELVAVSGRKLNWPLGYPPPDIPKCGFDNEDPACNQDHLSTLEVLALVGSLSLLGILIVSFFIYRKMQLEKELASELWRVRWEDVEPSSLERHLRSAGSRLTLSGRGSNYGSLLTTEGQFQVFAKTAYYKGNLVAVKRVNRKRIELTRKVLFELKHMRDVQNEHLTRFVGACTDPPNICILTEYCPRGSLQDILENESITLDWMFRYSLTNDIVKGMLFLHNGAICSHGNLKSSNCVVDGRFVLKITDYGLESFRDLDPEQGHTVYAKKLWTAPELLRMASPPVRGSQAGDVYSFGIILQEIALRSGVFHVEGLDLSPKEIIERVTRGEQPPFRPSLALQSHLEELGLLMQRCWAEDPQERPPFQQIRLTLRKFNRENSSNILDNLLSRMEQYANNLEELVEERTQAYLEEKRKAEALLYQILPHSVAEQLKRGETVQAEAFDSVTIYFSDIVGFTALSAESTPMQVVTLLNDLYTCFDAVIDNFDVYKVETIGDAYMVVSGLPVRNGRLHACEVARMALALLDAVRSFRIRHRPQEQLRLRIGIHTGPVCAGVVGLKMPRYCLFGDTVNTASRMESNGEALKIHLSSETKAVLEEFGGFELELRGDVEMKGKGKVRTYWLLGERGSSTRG
Experiment: Human NPRA cGMP activity assay (HTRF) in HEK293 cells overexpressing NPRA
Format: cell-based
Conditions: assay buffer with 0.1% casein
Protocol: All sequences were verified by full-length sequencing performed by ACGT DNA Sequencing Services (Wheeling, IL). The target cDNA was cloned into pJTI R4 CMV-TO MCS pA vector and then co-transfected with pJT1R4 Int vector into Jump-in™ T-Rex™ HEK293 cells for mammalian inducible expression using Jump-in™ T-Rex™ HEK293 kit and Lipofectamine LTX and Plus Reagent following manufacturer's protocols, as briefly described below.
Jump-in™ T-Rex™ HEK293 cells were plated in a BioCOAT® poly-D-lysine coated 6-well plate (Becton Dickinson, cat no. 354413) at 1 million cells/well in 2 mL culture medium and incubated for 18 h at 37° C. and 5% CO2 to 50-70% confluence. A cDNA mix was made in a 50 mL tube by adding 1.5 μg target cDNA, 1.5 μg pJT1R4 Int vector, 3 μL Plus Reagent, and 300 μL Opti-MEM I sequentially into the tube. A reagent mix was made in a separate 50 mL tube by adding 7.5 μL Lipofectamine LTX into 300 μL Opti-MEM I. The mixtures were incubated for 5 min at room temperature. The cDNA mix was then transferred into the reagent mix, mixed well, and incubated for additional 30 min at room temperature. A 500 μL of cDNA/Lipofectamine complex was then transferred to the wells of the cell plate in which the culture medium was changed to 2 mL of transfection medium containing DMEM with 4.5 g/L D-glucose supplemented with 10% FBS-HI and 20 mM HEPES. Transfected cells were cultured for 48 h in an incubator at 37° C. and 5% CO2. A subclone or pool from each overexpressing cell line was maintained in culture medium with the addition of 2 mg/mL G418 sulfate for the clone selection based on its built-in resistance to G418 sulfate for at least 3 weeks with medium changed every 2-3 days.
NPRs were overexpressed in T-Rex™ HEK293 cells following the induction with 300 ng/mL tetracycline in culture medium for 48 h. Induced cell lines in an exponential growth phase were treated with 0.05% trypsin-EDTA for a few seconds at room temperature, harvested in cell medium containing FBS to neutralize the trypsin, counted, and cryopreserved at the density of 2 million cells/mL in cell preservation solution containing FBS-HI with 5% DMSO. Cryopreserved cells were stored at −80° C. for a few days prior to transferring to a liquid nitrogen tank. Induced cell lines were then used for suspension assays to measure the activity of polypeptides to stimulate cGMP production in cGMP assays or for the preparation of cell membranes to measure the binding activity of polypeptides in competitive radioligand binding assays, as described below.
Test polypeptides were added starting at 10 μM concentration and at 10-fold decreasing concentrations to obtain 8-point concentration-response curves (i.e., 10 μM to 1 pM). The quantity of cGMP generated was detected using HTRF® technology and normalized to maximum amount produced by 100 nM amidated rat ANP and the minimum amount produced by assay buffer. Detailed steps are outlined below.
Stock solutions of test polypeptides (2 mM) dissolved in DMSO were first diluted 100-fold in assay buffer containing HBSS with Ca^2+ and Mg^2+, 5 mM HEPES, 0.5 mM IBMX, and 0.1% BSA or 0.1% casein (pH 7.4). The polypeptides were further serially diluted in 1:10 dilution steps in assay buffer containing 0.1% BSA or 0.1% casein to generate 8-point 2× working stock solutions ranging from 20 μM to […].
A 10 μL cell suspension containing 4000 cells was plated in Costar® half-area white opaque 96-well plates (Corning, cat no. 3693). Then 10 μL of assay buffer (basal activity), 200 nM of amidated rat ANP (maximum activity) or 2× working stock solutions of test polypeptides were transferred into the plate. Final concentration of DMSO in each well was 0.5%. The plate was shaken for 15 sec and then incubated for 40 min at room temperature.
The cGMP generated was measured using cGMP kit following the manufacturer's directions, as described below.

[1] = cGMP Assay (EC50, pM) w/Casein hNPRA

CC[C@H](C)[C@@H]1NC(=O)[C@H](CCCNC(=N)N)NC(=O)[C@H](CC(=O)O)NC(=O)[C@H]([C@@H](C)CC)NC(=O)[C@H](CCCNC(=N)N)NC(=O)CNC(=O)CNC(=O)[C@H](Cc2ccccc2)NC(=O)[C@@H](NC(=O)[C@H](CO)NC(=O)[C@H](CO)NC(=O)[C@H](CCCNC(=N)N)NC(=O)[C@H](CCCNC(=N)N)NC(=O)[C@H](Cc2c[nH]cn2)NC(=O)[C@H](CO)NC(=O)CNC(=O)[C@H](CCCCN)NC(=O)[C@H](CCC(=O)O)NC(=O)[C@H](CCCCN)NC(=O)[C@H](CCC(=O)O)NC(=O)[C@H](CCCCN)NC(=O)[C@H](CCC(=O)O)NC(=O)CC[C@H](NC(=O)CCCCCCCCCCCCCCCCCCC(=O)O)C(=O)O)CSSC[C@@H](C(=O)N2CCC[C@H]2C(=O)N[C@@H](CO)C(=O)N[C@@H](Cc2ccccc2)C(=O)N[C@@H](CCCNC(=N)N)C(=O)N[C@@H](Cc2c[nH]cn2)C(N)=O)NC(=O)CNC(=O)[C@H](CC(C)C)NC(=O)CNC(=O)[C@H](CO)NC(=O)[C@H](CCC(N)=O)NC(=O)[C@H](C)NC(=O)CNC1=O [Example 18] ({C20 diacid-γGlu}-EKEKEKGSHRRSSCFGGRIDRIGAQSGLGCPSFRH-NH2; disulfide 14-30)
EC50 (read-out: cGMP Assay (EC50, pM) w/Casein hNPRA): 460 pM

CC[C@H](C)[C@@H]1NC(=O)[C@H](CCCNC(=N)N)NC(=O)[C@H](CC(=O)O)NC(=O)[C@H]([C@@H](C)CC)NC(=O)[C@H](CCCNC(=N)N)NC(=O)CNC(=O)CNC(=O)[C@H](Cc2ccccc2)NC(=O)[C@@H](NC(=O)[C@H](CO)NC(=O)[C@H](CO)NC(=O)[C@H](CCCNC(=N)N)NC(=O)[C@H](CCCNC(=N)N)NC(=O)[C@H](Cc2ccncc2)NC(=O)[C@H](CO)NC(=O)CNC(=O)[C@H](CCCCN)NC(=O)[C@H](CCC(=O)O)NC(=O)[C@H](CCCCN)NC(=O)[C@H](CCC(=O)O)NC(=O)[C@H](CCCCN)NC(=O)[C@H](CCC(=O)O)NC(=O)CC[C@H](NC(=O)CCCCCCCCCCCCCCCCCCC(=O)O)C(=O)O)CSCSC[C@@H](C(=O)N2CCC[C@H]2C(=O)N[C@@H](CO)C(=O)N[C@@H](Cc2ccccc2)C(=O)N[C@@H](CCCNC(=N)N)C(=O)N[C@@H](Cc2c[nH]cn2)C(=O)NCC(=O)NCC(=O)N2CCC[C@H]2C(=O)N[C@@H](CO)C(=O)N[C@@H](CO)C(=O)NCC(=O)N[C@@H](C)C(=O)N2CCC[C@H]2C(=O)N2CCC[C@H]2C(=O)N2CCC[C@H]2C(=O)N[C@@H](CO)C(N)=O)NC(=O)CNC(=O)[C@H](CC(C)C)NC(=O)CNC(=O)[C@H](CO)NC(=O)[C@H](CCC(N)=O)NC(=O)[C@H](Cc2c[nH]cn2)NC(=O)CNC1=O [Example 2]
EC50 [1]: 1020 pM

CC[C@H](C)[C@@H]1NC(=O)[C@H](CCCNC(=N)N)NC(=O)[C@H](CC(=O)O)NC(=O)[C@H]([C@@H](C)CC)NC(=O)[C@H](CCCNC(=N)N)NC(=O)[C@H](CCCCN)NC(=O)CNC(=O)[C@H](Cc2ccccc2)NC(=O)[C@@H](NC(=O)[C@H](CO)NC(=O)[C@H](CO)NC(=O)[C@H](CCCNC(=N)N)NC(=O)[C@@H]2CCCN2C(=O)[C@H](CCCCN)NC(=O)[C@H](CCC(=O)O)NC(=O)COCCOCCNC(=O)COCCOCCNC(=O)COCCOCCNC(=O)COCCOCCNC(=O)COCCOCCNC(=O)COCCOCCNC(=O)COCCOCCNC(=O)COCCOCCNC(=O)CNC(=O)[C@H](CCCCN)NC(=O)[C@H](CCC(=O)O)NC(=O)[C@H](CCCCN)NC(=O)[C@H](CCC(=O)O)NC(=O)[C@H](CCCCN)NC(=O)[C@H](CCC(=O)O)NC(=O)CC[C@H](NC(=O)CCCCCCCCCCCCCCCCCCC(=O)O)C(=O)O)CSCSC[C@@H](C(=O)N2CCC[C@H]2C(=O)N[C@@H](CO)C(=O)N[C@@H](Cc2ccccc2)C(=O)N[C@@H](CCCNC(=N)N)C(=O)N[C@@H](Cc2c[nH]cn2)C(=O)N[C@@H](CO)C(=O)NCC(=O)N[C@@H](CO)C(=O)N2CCC[C@H]2C(=O)N[C@@H](CO)C(=O)N[C@@H](CO)C(=O)NCC(=O)N[C@@H](C)C(=O)N2CCC[C@H]2C(=O)N2CCC[C@H]2C(=O)N2CCC[C@H]2C(=O)N[C@@H](CO)C(=O)NCC(N)=O)NC(=O)CNC(=O)[C@H](CC(C)C)NC(=O)CNC(=O)[C@H](CO)NC(=O)[C@H](Cc2ccc(O)cc2)NC(=O)[C@H](Cc2c[nH]cn2)NC(=O)CNC1=O [Example 126]
EC50 [1]: 1090 pM

{C20 diacid-γGlu}-EKEKEKGEKGRSSCFGGRIDRIGHYSGLGCPSLRHGGPSSGAPPPS-NH2 (disulfide 14-30) [Example 51]
EC50 [1]: 361 pM
